“Also recorded” adds a separate entry of the source.
Columns and labels:
[1] = test system: RH116 messenger RNA; test: Semiquantitative RT-PCR of RH116 mRNA in CD8-depleted PBMCs of HIV-1 infected patients; assay type: cell-based, human; details: for maximum mean inhibition of expression of the RH116 messenger RNA: murabutide 10 μg/ml
Description: Venous blood is collected from patients sero-positive for HIV-1 and peripheral blood mononuclear cells (PBMCs) are isolated by centrifugation on Ficoll-Hypaque (AMERSHAM PHARMACIA BIOTECH, Uppsala, Sweden). The cells are washed carefully in order to remove the platelets and are depleted of CD8+ cells using electro-magnetic beads covered with an anti-CD8 antibody (DYNAL, Oslo, Norway). The depleted PBMCs obtained using the manufacturer's protocol contain less than 3% of CD8+ cells after analysis by flow cytometry. […]. Next, the PBMCs are cultured and then recovered in the presence or absence of murabutide (N-acetylmuramyl-L-alanyl-D-glutamine-n-butyl ester) (provided by ISTAC SA, Lille, France) (10 μg/ml) and interleukin 2 (IL-2) (10 μg/ml) for 6 or 24 hours.
(§1) The total cellular RNA extracted using the RNA plus kit (Q-BIOgene, Illkirch, France) is pretreated with DNAse I. Synthesis of the first strand on the polyA+ RNA was primed with a p(dT)15 primer (BOERHINGER MANNHEIM, ROCHE DIAGNOSTICS, France) and carried out with the reverse transcriptase derived from the Moloney murine leukemia virus (M-MLV) (PROMEGA, Madison, Calif., USA) (1 hour at 37° C., 3 min at 92° C.). The resulting cDNA is then subjected to 25 to 35 repeat amplification cycles with the AmpliTaq Gold polymerase (APPLIED BIOSYSTEMS). PCR amplification of the GAPDH sequences is carried out in order to obtain an internal control. […]
PBMCs of patients (P) infected with HIV or of control healthy donors (C) are isolated, depleted of CD8+ lymphocytes (Dynabeads, Dynal) and stimulated with phytohemagglutinin, PHA (5 μg/ml), for 3 days. […] The number of amplification cycles was determined beforehand (35 cycles). The amplified fragments are visualized on an agarose gel (1%) in the presence of ethidium bromide, and then quantified using the Imager master program (Pharmacia). […]

[2] = test system: PBMCs of CD8 lymphocyte-depleted patients; assay type: cell-based, human
Description: Specifically, MB inhibits by 70 to 100% the level of HIV viral protein p24 in the culture supernatants. This effect correlates with the level of expression of viral messenger RNAs (nonspliced and single-spliced).

[3] = in vivo; cited from earlier work
[4] = test system: RH116 gene; test: Semiquantitative RT-PCR of RH116 gene expression in PBMCs of healthy donors; assay type: cell-based, human; details: 10 healthy controls, in particular after 6 hours, 10 μg/ml
Procedure: as §1
PBMCs of patients (P) infected with HIV or of control healthy donors (C) are isolated, depleted of CD8+ lymphocytes (Dynabeads, Dynal) and stimulated with phytohemagglutinin, PHA (5 μg/ml), for 3 days. […] The number of amplification cycles was determined beforehand (35 cycles). The amplified fragments are visualized on an agarose gel (1%) in the presence of ethidium bromide, and then quantified using the Imager master program (Pharmacia). […] The results are then expressed as % increase or % inhibition of expression of the gene compared with the untreated cells. […]

[5] = test system: human immunodeficiency virus (HIV); details: macrophages, dendritic cells, PBMCs of infected patients; cited from earlier work

N-acetylmuramyl-L-alanyl-D-glutamine-n-butyl ester [murabutide]
expression of the RH116 gene compared with untreated cells ([1]; 12 patients, 6 or 24 h, 10 μg/ml): significant inhibition | maximum mean inhibition of expression of the RH116 messenger RNA ([1]; 6 hours, patient No. 5): 90% | maximum mean inhibition of expression of the RH116 messenger RNA ([1]; 24 hours, patient No. 3): 57% | number of live cells (lack of toxicity) [2]: remain unchanged | clinical tolerance [3]: good clinical tolerance | inflammatory reactions [3]: does not induce inflammatory reactions | pyrogenicity [3]: not pyrogenic | toxicity in clinical studies [3]: has not shown severe toxicity | expression of the RH116 gene compared with untreated cells [4]: increases the level of expression; also recorded: very significant increase | HIV replication [5]: inhibits

Reference: patent US20040086500A1, “Rh116 polypeptides and its fragments and polynucleotides encoding said polypeptides and therapeutic uses” (priority 2000, published 2004)
